The assay addresses T1, androgen receptor (AR-LBD) (Rattus norvegicus, UniProt P15207).
T1 construct: 5 μL of 2×AR-LBD/Fluoromone AL Red Complex contained in the kit; purchased Invitrogen
T1 sequence (P15207 651-882 limits assumed): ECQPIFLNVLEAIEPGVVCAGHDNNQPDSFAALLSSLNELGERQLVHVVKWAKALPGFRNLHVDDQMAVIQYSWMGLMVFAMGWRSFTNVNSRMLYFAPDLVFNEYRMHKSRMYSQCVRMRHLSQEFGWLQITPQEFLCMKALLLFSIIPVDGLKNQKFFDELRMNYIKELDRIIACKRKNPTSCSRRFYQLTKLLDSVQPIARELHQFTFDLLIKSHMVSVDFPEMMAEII
Put plainly: Evaluation of androgen receptor affinity (PolarScreen Androgen Receptor Competitor Assay Kit, Red; fluorescence polarization). Conditions: 22° C. for 5 hours, relative to binding rate of 1 μM DHT, read-out: AR affinity (pEC50) (converted). The procedure: Evaluation of an Androgen Receptor Affinity
To examine the interaction of a compound with an androgen receptor, evaluation was carried out in accordance with the following procedure using PolarScreen™ Androgen Receptor Competitor Assay Kit, Red (Invitrogen). To 2 wells each of a 384 well black plate was added 5 μL of the compound solution. To each well was added 5 μL of 2×AR-LBD/Fluoromone AL Red Complex contained in the kit and the samples were reacted at 22° C. for 5 hours. After 5 hours of the reaction, fluorescence polarization was measured and the affinity was evaluated. The affinity of the compound was determined by comparing to the binding rate of 1 μM of dihydrotestosterone (DHT), and quantified the logarithm value (pEC50) of reciprocal value of the effective concentration of the compound which is equal to 50% of the binding rate by applying a 4 parameter goodness-of-fit calculation.
As for `Cc1sc(N(Cc2ccccc2)c2ccc(F)cc2F)nc1C(=O)NS(C)(=O)=O` [Compound 36, 2-(N-benzyl-2,4-difluoro-anilino)-5-methyl-N-methylsulfonyl-thiazole-4-carboxamide], the EC50 was 1.26 µM. On to `CO[C@@H]1CCC[C@H](CN(c2ccc(C#N)cc2)c2nc(C(=O)NS(C)(=O)=O)c(C)s2)C1` (racemic) [Compound 349, 2-[4-cyano-N-[[cis-3-methoxycyclohexyl]methyl]anilino]-5-methyl-N-methylsulfonyl-thiazole-4-carboxamide], for which the EC50 is 0.501 µM.

As for `Cc1sc(N(c2ccc(C#N)cc2)C(C)c2ccccc2)nc1C(=O)NS(C)(=O)=O` (centres unmarked) [Compound 58, 2-[4-cyano-N-(1-phenylethyl)anilino]-5-methyl-N-methylsulfonyl-thiazole-4-carboxamide], the EC50 was greater than 2 µM. As for `Cc1sc(N(Cc2ccccc2)c2ccc3ccn(C)c3c2)nc1C(=O)NS(C)(=O)=O` [Compound 746, 2-[benzyl-(1-methylindol-6-yl)amino]-5-methyl-N-methylsulfonyl-thiazole-4-carboxamide], the figure is greater than 2 µM.

As to `CCS(=O)(=O)NC(=O)c1nc(N(CCc2ccc(Cl)cc2)CC2CCCCC2)sc1C` [Compound 698, 2-[2-(4-chlorophenyl)ethyl-(cyclohexylmethyl)amino]-N-ethylsulfonyl-5-methyl-thiazole-4-carboxamide], the EC50 is 0.794 µM.

Turning to `COc1cccc(CN(c2ccc(C#N)cc2)c2nc(C(=O)NS(C)(=O)=O)c(Cl)s2)c1` [Example 260, 5-chloro-2-[4-cyano-N-[(3-methoxyphenyl)methyl]anilino]-N-methylsulfonyl-thiazole-4-carboxamide], the EC50 is 0.0398 µM. Turning to `Cc1nc(CCN(Cc2ccccc2)c2nc(C(=O)NS(C)(=O)=O)c(C)s2)cs1` [Compound 706, 2-[benzyl-[2-(2-methylthiazol-4-yl)ethyl]amino]-5-methyl-N-methylsulfonyl-thiazole-4-carboxamide], the EC50 is greater than 2 µM. As for `Cc1sc(N(Cc2ccc(OCCCN3CCCC3=O)cc2)c2ccc(C#N)cc2)nc1C(=O)NS(C)(=O)=O` [Compound 578, 2-[4-cyano-N-[[4-[3-(2-oxopyrrolidin-1-yl)propoxy]phenyl]methyl]anilino]-5-methyl-N-methylsulfonyl-thiazole-4-carboxamide], the figure is 0.794 µM. Next, `Cc1sc(N(Cc2ccccc2)c2ccncc2)nc1C(=O)NS(C)(=O)=O` [Compound 422, 2-[benzyl(4-pyridyl)amino]-5-methyl-N-methylsulfonyl-thiazole-4-carboxamide]: 1.26 µM; `Cc1sc(N(C)c2ccc(C#N)cc2)nc1C(=O)NS(C)(=O)=O` [Compound 60, 2-(4-cyano-N-methyl-anilino)-5-methyl-N-methylsulfonyl-thiazole-4-carboxamide]: greater than 2 µM; `Cc1sc(N(Cc2ccccc2)c2ccc(C#N)nc2)nc1C(=O)NS(C)(=O)=O` [Compound 604, 2-[benzyl-(6-cyano-3-pyridyl)amino]-5-methyl-N-methylsulfonyl-thiazole-4-carboxamide]: greater than 2 µM. Take `Cc1sc(N(Cc2ccccc2)c2cnccn2)nc1C(=O)NS(C)(=O)=O` [Compound 55, 2-[benzyl(pyrazin-2-yl)amino]-5-methyl-N-methylsulfonyl-thiazole-4-carboxamide]: the EC50 was greater than 2 µM.

For the compound `Cc1sc(N(CC2CCC(N(C)C)CC2)c2ccc(C#N)cc2)nc1C(=O)NS(C)(=O)=O` (centres unmarked) [Compound 352, 2-[4-cyano-N-[[4-(dimethylamino)cyclohexyl]methyl]anilino]-5-methyl-N-methylsulfonyl-thiazole-4-carboxamide], the EC50 was greater than 2 µM. As for `Cc1sc(N(Cc2ccccc2)c2cccc(Cl)c2)nc1C(=O)NS(C)(=O)=O` [Compound 32, 2-(N-benzyl-3-chloro-anilino)-5-methyl-N-methylsulfonyl-thiazole-4-carboxamide], the figure is greater than 2 µM; as for `Cc1sc(N(Cc2cccc(OCCO)c2)c2ccc(C#N)cc2)nc1C(=O)NS(C)(=O)=O` [Compound 587, 2-[4-cyano-N-[[3-(2-hydroxyethoxy)phenyl]methyl]anilino]-5-methyl-N-methylsulfonyl-thiazole-4-carboxamide], 0.501 µM; as for `Cc1cccc(CN(c2ccc(C#N)cc2)c2nc(C(=O)NS(C)(=O)=O)c(Cl)s2)c1` [Example 266, 5-chloro-2-[4-cyano-N-(m-tolylmethyl)anilino]-N-methylsulfonyl-thiazole-4-carboxamide], 0.0316 µM.

As for `Cc1sc(N(Cc2ccc(OCCN3CCOCC3)cc2)c2ccc(C#N)cc2)nc1C(=O)NS(C)(=O)=O` [Compound 572, 2-[4-cyano-N-[[4-(2-morpholinoethoxy)phenyl]methyl]anilino]-5-methyl-N-methylsulfonyl-thiazole-4-carboxamide], the EC50 was 1.58 µM. As for `Cc1sc(N(CCc2ccc(C#N)cc2)CC2CCCCC2)nc1C(=O)NS(=O)(=O)Cc1cccc(F)c1` [Compound 720, 2-[2-(4-cyanophenyl)ethyl-(cyclohexylmethyl)amino]-N-[(3-fluorophenyl)methylsulfonyl]-5-methyl-thiazole-4-carboxamide], the figure is greater than 2 µM; as for `Cc1ccc(CN(c2ccc(C#N)cc2)c2nc(C(=O)NS(C)(=O)=O)c(Cl)s2)cc1` [Example 267, 5-chloro-2-[4-cyano-N-(p-tolylmethyl)anilino]-N-methylsulfonyl-thiazole-4-carboxamide], 0.0251 µM; as for `Cc1sc(N(CC(C)(C)C)c2ccc(C#N)cc2)nc1C(=O)NS(C)(=O)=O` [Compound 74, 2-[4-cyano-N-(2,2-dimethylpropyl)anilino]-5-methyl-N-methylsulfonyl-thiazole-4-carboxamide], greater than 2 µM. Next, `Cc1sc(N(CC2CC2)c2ccc(C#N)cc2)nc1C(=O)NS(C)(=O)=O` [Compound 67, 2-[4-cyano-N-(cyclopropylmethyl)anilino]-5-methyl-N-methylsulfonyl-thiazole-4-carboxamide]: greater than 2 µM; `Cc1sc(N(Cc2ccc3nc[nH]c3c2)c2ccc(C#N)cc2)nc1C(=O)NS(C)(=O)=O` [Compound 389, 2-[N-(3H-benzimidazol-5-ylmethyl)-4-cyano-anilino]-5-methyl-N-methylsulfonyl-thiazole-4-carboxamide]: 1.58 µM; `Cc1sc(N(c2ccc(C#N)cc2)[C@H](CO)c2ccccc2)nc1C(=O)NS(C)(=O)=O` [Compound 467, 2-(4-cyano-N-[(1S)-2-hydroxy-1-phenyl-ethyl]anilino)-5-methyl-N-methylsulfonyl-thiazole-4-carboxamide]: greater than 2 µM. As for `Cc1sc(N(CCc2ccc(N(C)C)cc2)c2ccc(C#N)cc2)nc1C(=O)NS(C)(=O)=O` [Compound 480, 2-[4-cyano-N-[2-[4-(dimethylamino)phenyl]ethyl]anilino]-5-methyl-N-methylsulfonyl-thiazole-4-carboxamide], the figure is greater than 2 µM.

With `Cc1sc(N(Cc2ccccc2)c2cccc(F)c2)nc1C(=O)NS(C)(=O)=O` [Compound 29, 2-(N-benzyl-3-fluoro-anilino)-5-methyl-N-methylsulfonyl-thiazole-4-carboxamide], the EC50 is greater than 2 µM. As for `Cc1sc(N(Cc2ccccc2)c2ccc(F)cc2)nc1C(=O)NS(C)(=O)=O` [Compound 28, 2-(N-benzyl-4-fluoro-anilino)-5-methyl-N-methylsulfonyl-thiazole-4-carboxamide], the figure is 1 µM.

(Values after patent publication US10689354B2, “Aminoazole derivative” (Teijin Pharma Limited, priority 2015, dated 2020).)
